# Patent publication US20230293801A1, “Flow Electroporator Device For Therapeutic Targeting Of Circulating Tumor Cells During Hemodialysis” (ROSEMAN UNIVERSITY OF HEALTH SCIENCES, priority 2022, published 2023)
# Key:
# Type in all cases: cell-based
# HeLa cells [1] = test: Confocal fluorescence imaging of intracellular lipid droplets in cells incubated with blood plasma; settings: blood plasma and 10 μM A922500 for 24 hrs
# Description: (§1) FIGS. 7A-H show A922500, a DGAT1 inhibitor, reduces the viability of CTCs in blood plasma. […] Cell viability is assayed with crystal violet staining and visualized at low resolution (left column) and high resolution (right column). […] Error bars are standard deviation of triplicate experiments. Asterisk indicates p-value≤0.01 versus culturing in EMEM medium. […] Control HeLa cells cultured in EMEM medium is presented in the top panel. HeLa cells incubated with blood plasma for 24 hrs is presented in the bottom panel. […] Images are control untreated HeLa cells cultured with EMEM medium (first panel); HeLa cells cultured in EMEM medium and treated with 10 μM A922500, a small-molecule inhibitor of diacylglycerol O-acyltransferase 1 (DGAT1), for 24 hrs (second panel); HeLa cells incubated with blood plasma for 24 hrs (third panel); and HeLa cells incubated with blood plasma and 10 μM A922500 for 24 hrs (fourth panel). FIGS. 7F-H show viability of HeLa cells following incubation with blood plasma or blood plasma and A922500. Cell viability is assayed with crystal violet staining and visualized at low resolution (FIG. 7F) and high resolution (FIG. 7G). […] Error bars are standard deviation of triplicate experiments. Single asterisk indicates p-value≤0.01 versus untreated control HeLa cells cultured with EMEM. […]
# HeLa cells [2] = test: Cell viability by crystal violet staining after incubation with blood plasma and A922500; settings: blood plasma and A922500, versus blood plasma alone for 24 hrs
# Description: as §1
# HeLa cells [3] = test: Doxorubicin uptake by flow cytometry of doxorubicin fluorescence, with and without the flow electroporator device; settings: HeLa cells in EMEM, 40 nM doxorubicin, 500 ml/min, 300 V/cm, 200 V/cm, normalized to no electroporation
# Description: (§2) FIGS. 6A-G show drug delivery via electroporation. […] Cell cycle analysis is performed using flow cytometry and propidium iodide staining of chromosomal DNA. […] Error bars are standard deviation of triplicate experiments. Asterisk indicates p-value≤0.01 versus untreated control. FIGS. 6D-G show increased delivery of doxorubicin into HeLa cells via electroporation. […] Data are normalized to 1 for doxorubicin fluorescence of HeLa cells incubated with 40 nM doxorubicin without electroporation. Error bars are standard deviation of triplicate experiments. Asterisk indicates p-value≤0.01 versus no electroporation.
# (§3) Another utility of the flow electroporator device is drug delivery during hemodialysis. Due to the unique cancer hallmarks of CTCs, many chemotherapeutic agents can be used for their selective targeting. […] Electroporation by the flow electroporator device enhanced doxorubicin uptake by CTCs by more than 4 fold (FIG. 6D-G). An advantage of drug delivery during hemodialysis is the subsequent removal of excess chemotherapeutic agents, thereby minimizing unnecessary side effects to cancer patients.
# HeLa cells [4] = test: Cell cycle analysis by flow cytometry and propidium iodide staining of chromosomal DNA; settings: HeLa cells as mocked CTCs, 40 nM doxorubicin for 24 hrs
# Description: as §2, §3
SMILES,lipid droplet accumulation in CTCs incubated with blood plasma (HeLa cells [1]),viability of CTCs in blood plasma (HeLa cells [2]),enhancement of doxorubicin uptake by CTCs by electroporation (HeLa cells [3]),effect on cell cycle of CTCs (HeLa cells [4])
O=C(Nc1ccccc1)Nc1ccc(-c2ccc(C(=O)[C@@H]3CCC[C@H]3C(=O)O)cc2)cc1 [A922500],inhibited lipid droplet accumulation,further reduced the viability,,
COc1cccc2c1C(=O)c1c(O)c3c(c(O)c1C2=O)C[C@@](O)(C(=O)CO)C[C@@H]3O[C@H]1C[C@H](N)[C@H](O)[C@H](C)O1 [doxorubicin],,,more than 4 fold,cell cycle arrest
